Read-outs that look alike come from different tables or passages of the source. Where a SMILES comes first, the peptide text is derived from it. [ ]: non-standard residue; d: D form. Tyr(3-I) = N[C@@H](Cc1ccc(O)c(I)c1)C(=O)O
Columns and labels:
[1] = molecular target: T1, VCAM-1 (Homo sapiens, UniProt P19320); conditions: as shown by Ling et al. (2000); cited from earlier work
T1 sequence (P19320 25-739): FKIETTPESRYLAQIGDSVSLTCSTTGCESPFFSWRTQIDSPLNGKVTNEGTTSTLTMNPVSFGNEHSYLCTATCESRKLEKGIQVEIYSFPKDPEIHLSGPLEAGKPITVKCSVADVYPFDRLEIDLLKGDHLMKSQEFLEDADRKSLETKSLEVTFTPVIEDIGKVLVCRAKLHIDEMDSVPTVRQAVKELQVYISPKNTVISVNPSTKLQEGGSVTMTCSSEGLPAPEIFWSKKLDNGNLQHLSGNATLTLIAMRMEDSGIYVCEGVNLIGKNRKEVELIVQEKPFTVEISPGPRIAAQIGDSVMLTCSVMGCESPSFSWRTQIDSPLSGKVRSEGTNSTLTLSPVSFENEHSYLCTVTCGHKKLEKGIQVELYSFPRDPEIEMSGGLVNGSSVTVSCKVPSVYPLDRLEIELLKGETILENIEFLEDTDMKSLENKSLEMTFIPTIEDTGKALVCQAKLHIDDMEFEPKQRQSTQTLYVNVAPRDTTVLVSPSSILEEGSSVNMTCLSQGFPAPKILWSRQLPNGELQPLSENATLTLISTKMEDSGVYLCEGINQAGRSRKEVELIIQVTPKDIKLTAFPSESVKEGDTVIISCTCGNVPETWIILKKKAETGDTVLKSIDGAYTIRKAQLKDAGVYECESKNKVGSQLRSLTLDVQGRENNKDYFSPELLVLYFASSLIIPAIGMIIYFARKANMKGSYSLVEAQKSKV

[2] = Blood kinetics up to 180 minutes after injection; format: in vivo, rabbit; conditions: 180 minutes after the injection
Procedure: (§1) The tracers ^123I-B2702.84-75 and ^99mTc-B2702.84-75 were evaluated according to the same methodology as was used for Examples 3 and 4, except that the animals were euthanased 180 minutes (30 minutes previously) after the injection of the tracers.
The blood samples for measuring the circulatory tracer activity were taken 1, 2, 5, 10, 20, 25, 30, 60, 120 and 180 minutes after the injection. 180 minutes after the injection, the circulatory activity of ^123I-B2702.84-75 and ^99mTc-B2702.84-75 represents respectively 30% and 15% of the initial activity. It will be recalled that the circulatory activity of ^125I-B2702.84-75 represented approximately 40% of the initial activity 30 minutes after the injection in the experiments described in Example 3.

[3] = test system: atheromatous plaques; test: Aortic binding, ex vivo autoradiography, euthanasia after 180 minutes; format: in vivo, rabbit; conditions: 180 minutes after injection
Procedure: (§2) Samples of blood were taken 1, 2, 5, 10, 15, 20, 25 and 30 minutes after injection of the tracers. The animals were euthanased 30 minutes (examples 2, 3 and 4) or 180 minutes (examples 5 and 6) after injection of the labelled VCAM-1 ligands. Samples of the principal organs were taken. These samples, as well as the blood samples taken, were counted for the radioactivity which they contain. The dorsal aorta, the aortic arch and the ventral aorta were also sampled and immediately placed in 10% formalin. A portion of ventral aorta was placed for 24 hours in 3.7% formaldehyde for subsequent inclusion in paraffin and verification by immunohistology of the presence of VCAM-1.
The dorsal and ventral aortas were placed in contact with a high-resolution phosphorus screen (Fujifilm 08SR2025) in darkness for 18 hours. The screen was then scanned (phosphoimager Fujifilm BAS 5000) and the images of the distribution of the labelled VCAM-1 ligands on the aortas of healthy or hyperlipidemic animals were quantified with the aid of the Scion Image Beta software available on the National Institute of Health internet site. […]
The tracers ^123I-B2702.84-75 and ^99mTc-B2702.84-75 were evaluated according to the same methodology as was used for Examples 3 and 4, except that the animals were euthanased 180 minutes (30 minutes previously) after the injection of the tracers. […]

[4] = Biodistribution 180 minutes after the injection; format: in vivo; conditions: rabbit, iv, total radioactivity
Procedure: as §2, §1
The binding values are expressed as a percentage of the injected dose per gram of organ (% ID/g).

In the case of “B2702.84-75/75-84: peptide of sequence YRLAIRLNERRENLRIALRY (SEQ ID no 2), inverse dimer of residues 84-75/75-84 of HLA-B2702 (listed as Homo sapiens)”, the “binding to VCAM-1” value [1] is given as “bind specifically to VCAM-1”.

With `CC[C@H](C)[C@H](NC(=O)[C@H](C)NC(=O)[C@H](CC(C)C)NC(=O)[C@H](CCCNC(=N)N)NC(=O)[C@@H](N)Cc1ccc(O)c(I)c1)C(=O)N[C@@H](CCCNC(=N)N)C(=O)N[C@@H](CC(C)C)C(=O)N[C@@H](CC(N)=O)C(=O)N[C@@H](CCC(=O)O)C(=O)N[C@@H](CCCNC(=N)N)C(=O)O` [^123I-B2702.84-75] (H-[Tyr(3-I)]RLAIRLNER-OH; N-terminus and C-terminus assumed) the “circulatory activity, of the initial activity” value [2] was 30%, the “binding on atheromatous plaques of WHHL animals relative to aortas of control animals” value [3] was 17.0 times and the “binding ratio atheromatous plaque / normal aortic zone” value ([3]; WHHL animals) was 4.0. It also gave a tissue uptake at 3 h ([4]; aorta, Control rabbits (n = 3), read-out: Biodistribution, Aorta) of 0.011 ± 0.004 %ID/g, a tissue uptake at 3 h ([4]; aorta, WHHL rabbits (n = 3), read-out: Biodistribution, Aorta) of 0.034 ± 0.012 %ID/g and a tissue uptake at 3 h ([4]; blood, Control rabbits (n = 3), read-out: Biodistribution, Blood) of 0.19 ± 0.038 %ID/g. It also gave a tissue uptake at 3 h ([4]; blood, WHHL rabbits (n = 3), read-out: Biodistribution, Blood) of 0.161 ± 0.048 %ID/g, a tissue uptake at 3 h ([4]; fat, Control rabbits (n = 3), read-out: Biodistribution, Fat) of 0.011 ± 0.001 %ID/g and a tissue uptake at 3 h ([4]; fat, WHHL rabbits (n = 3), read-out: Biodistribution, Fat) of 0.015 ± 0.006 %ID/g. For the same molecule, the tissue uptake at 3 h ([4]; heart, Control rabbits (n = 3), read-out: Biodistribution, Heart) was 0.088 ± 0.017 %ID/g, the tissue uptake at 3 h ([4]; heart, WHHL rabbits (n = 3), read-out: Biodistribution, Heart) was 0.088 ± 0.031 %ID/g and the tissue uptake at 3 h ([4]; kidney, Control rabbits (n = 3), read-out: Biodistribution, Kidney) was 0.307 ± 0.052 %ID/g. It also gave a tissue uptake at 3 h ([4]; kidney, WHHL rabbits (n = 3), read-out: Biodistribution, Kidney) of 0.49 ± 0.184 %ID/g, a tissue uptake at 3 h ([4]; liver, Control rabbits (n = 3), read-out: Biodistribution, Liver) of 0.086 ± 0.025 %ID/g and a tissue uptake at 3 h ([4]; liver, WHHL rabbits (n = 3), read-out: Biodistribution, Liver) of 0.096 ± 0.029 %ID/g. The tissue uptake at 3 h ([4]; lung, Control rabbits (n = 3), read-out: Biodistribution, Lung) was 0.138 ± 0.028 %ID/g, the tissue uptake at 3 h ([4]; lung, WHHL rabbits (n = 3), read-out: Biodistribution, Lung) was 0.163 ± 0.044 %ID/g and the tissue uptake at 3 h ([4]; muscle, Control rabbits (n = 3), read-out: Biodistribution, Muscle) was 0.028 ± 0.003 %ID/g. It also gave a tissue uptake at 3 h ([4]; muscle, WHHL rabbits (n = 3), read-out: Biodistribution, Muscle) of 0.026 ± 0.009 %ID/g, a tissue uptake at 3 h ([4]; spleen, Control rabbits (n = 3), read-out: Biodistribution, Spleen) of 0.076 ± 0.015 %ID/g and a tissue uptake at 3 h ([4]; spleen, WHHL rabbits (n = 3), read-out: Biodistribution, Spleen) of 0.089 ± 0.029 %ID/g. For the same molecule, the tissue uptake at 3 h ([4]; stomach, Control rabbits (n = 3), read-out: Biodistribution, Stomach) was 0.095 ± 0.025 %ID/g and the tissue uptake at 3 h ([4]; stomach, WHHL rabbits (n = 3), read-out: Biodistribution, Stomach) was 0.114 ± 0.04 %ID/g.
